According to patent US4289883A, “Carbostyril compounds” (Otsuka Pharmaceutical Co., Ltd., priority 1976, dated 1981):
Where two headings read alike, the source gives them in different places.

Assays:
β-adrenoreceptor = assay: β-adrenergic blocking activity in anesthetized dogs (antagonism to isoprenaline effects on heart rate, diastolic blood pressure and air-way resistance); type: in vivo; settings: 10 minutes after i.v. test compound 300 μg/kg; for Inhibition (%) dBP (Diastolic Blood Pressure): antagonism to isoprenaline (1 μg/kg i.v.) induced depression of diastolic blood pressure; for Inhibition (%) dBP (Diastolic Blood Pressure) / Inhibition (%) AR (AirWay Resistance): dogs; for Inhibition (%) HR (Heart Rate): antagonism to isoprenaline (1 μg/kg i.v.) induced increase in heart rate, male hybrid adult dogs; for Inhibition (%) AR (AirWay Resistance): antagonism to isoprenaline depression of histamine (5 μg/kg i.v.) induced increase of air-way resistance
Experimental: The β-adrenergic blocking activity of the compounds of this invention was determined as follows:
Male hybrid adult dogs, weighing 10 to 16 kg, were anesthesized with sodium pentobarbital administered intravenously at a level of 30 mg/kg of body weight, and a cannula was inserted into the trachea of each of the anesthesized dogs. In order to avoid blood coagulation, heparin was administered intravenously at a level of 1000 units and thereafter a cannula was inserted into the right femoral artery. The experiments were conducted under artificial respiration at a rate of 20 ml/kg, 18 r.p.m.
The above parameters were continuously recorded on a polygraph (8S 28 Type, tradename of Sanei Sokki Co., Japan). During the experiment, gallamine was administered intravenously at a dosage of 3 mg/kg at one-hour intervals to avoid fluctuation of air-way resistance.
The β-adrenergic blocking activity of each of the test compounds was evaluated in terms of antagonism (Inhibition %) to the depression at the diastolic blood pressure (dBP) and to the increase in the heart rate induced by the intravenous administration of isoprenaline (1 μg/kg) and in terms of antagonism (Inhibition %) to the depression by isoprenaline in increase of air-way resistance which was induced by intravenous administration of histamine (5 μg/kg). In this case, histamine was administered 45 seconds after the administration of isoprenaline.

[1] = acute toxicity (LD50), i.v. and p.o.; parameters: species or system rats; settings: rat, in vivo
Experimental: Further, the acute toxicity of the compounds of the present invention having the formula (I) was determined by intravenous administration (i.v.) and oral administration (p.o.) in 5 to 6 group of rats (dd, strain; body weight, 18 to 22 g; 10 rats in each group) which have been fasted for 12 hours prior to the test.

COc1ccc(CCNCC(O)COc2cccc3c2CCC(=O)N3)cc1OC (stereo not drawn) [Comparison Compound 2, reference compound]
Inhibition (%) dBP (Diastolic Blood Pressure) (β-adrenoreceptor): 65.6% | Inhibition (%) HR (Heart Rate) (β-adrenoreceptor): 87.2% | Inhibition (%) AR (AirWay Resistance) (β-adrenoreceptor): 79.1%

CC(C)(C)NCC(O)COc1ccc(OCc2ccccc2)c2c1CCC(=O)N2 (stereo not drawn) [Prior Art Compound 3, reference compound]
Inhibition (%) dBP (Diastolic Blood Pressure) (β-adrenoreceptor): 10.2% | Inhibition (%) HR (Heart Rate) (β-adrenoreceptor): 71.3% | Inhibition (%) AR (AirWay Resistance) (β-adrenoreceptor): 67.8%

CC(C)(C)NCC(O)COc1ccc(O)c2c1CCC(=O)N2 (stereo not drawn) [Prior Art Compound 1, reference compound]
Inhibition (%) dBP (Diastolic Blood Pressure) (β-adrenoreceptor): 100% | Inhibition (%) HR (Heart Rate) (β-adrenoreceptor): 100% | Inhibition (%) AR (AirWay Resistance) (β-adrenoreceptor): 100%

C#CCOc1ccc(OCC(O)CNCCc2ccc(OC)c(OC)c2)c2ccc(=O)[nH]c12 (stereo not drawn) [Sample 16]
Inhibition (%) dBP (Diastolic Blood Pressure) (β-adrenoreceptor): 40.9% | Inhibition (%) HR (Heart Rate) (β-adrenoreceptor): 55.3% | Inhibition (%) AR (AirWay Resistance) (β-adrenoreceptor): 13.7%

CC(C)(C)NCC(O)COc1cccc2c1CCC(=O)N2 (stereo not drawn) [Comparison Compound 1, reference compound]
Inhibition (%) dBP (Diastolic Blood Pressure) (β-adrenoreceptor): 100% | Inhibition (%) HR (Heart Rate) (β-adrenoreceptor): 100% | Inhibition (%) AR (AirWay Resistance) (β-adrenoreceptor): 100%

COc1ccc(OCC(O)CNC(C)(C)C)c2c1NC(=O)CC2 (stereo not drawn) [Prior Art Compound 2, reference compound]
Inhibition (%) dBP (Diastolic Blood Pressure) (β-adrenoreceptor): 83.7% | Inhibition (%) HR (Heart Rate) (β-adrenoreceptor): 82.1% | Inhibition (%) AR (AirWay Resistance) (β-adrenoreceptor): 80.2%

CC(=O)Oc1ccc(OCC(O)CNC(C)(C)C)c2c1N(Cc1ccccc1)C(=O)CC2 (stereo not drawn) [Sample 13]
Inhibition (%) dBP (Diastolic Blood Pressure) (β-adrenoreceptor): 77.5% | Inhibition (%) HR (Heart Rate) (β-adrenoreceptor): 85.2% | Inhibition (%) AR (AirWay Resistance) (β-adrenoreceptor): 59.3%

CCOC(=O)COc1ccc(OCC(O)CNCCc2ccc(OC)c(OC)c2)c2c1NC(=O)CC2 (stereo not drawn) [Sample 15]
Inhibition (%) dBP (Diastolic Blood Pressure) (β-adrenoreceptor): 8.5% | Inhibition (%) HR (Heart Rate) (β-adrenoreceptor): 10.2% | Inhibition (%) AR (AirWay Resistance) (β-adrenoreceptor): 2.7%

COCCOc1ccc(OCC(O)CNC(C)C)c2c1NC(=O)CC2 (stereo not drawn) [Sample 17]
Inhibition (%) dBP (Diastolic Blood Pressure) (β-adrenoreceptor): 34.1% | Inhibition (%) HR (Heart Rate) (β-adrenoreceptor): 41.8% | Inhibition (%) AR (AirWay Resistance) (β-adrenoreceptor): 9.7%

COCCOc1ccc(OCC(O)CNCCc2ccc(OC)c(OC)c2)c2c1NC(=O)CC2 (stereo not drawn) [Sample 1]
Inhibition (%) dBP (Diastolic Blood Pressure) (β-adrenoreceptor): 28.3% | Inhibition (%) HR (Heart Rate) (β-adrenoreceptor): 45.5% | Inhibition (%) AR (AirWay Resistance) (β-adrenoreceptor): 25.0%

C#CCOc1ccc(OCC(O)CNC2CCCCC2)c2c1NC(=O)CC2 (stereo not drawn) [Sample 21]
Inhibition (%) dBP (Diastolic Blood Pressure) (β-adrenoreceptor): 22.0% | Inhibition (%) HR (Heart Rate) (β-adrenoreceptor): 17.3% | Inhibition (%) AR (AirWay Resistance) (β-adrenoreceptor): 8.3%

C=CCOc1ccc(OCC(O)CNCC(c2ccccc2)c2ccccc2)c2c1NC(=O)CC2 (stereo not drawn) [Sample 10]
Inhibition (%) dBP (Diastolic Blood Pressure) (β-adrenoreceptor): 20.4% | Inhibition (%) HR (Heart Rate) (β-adrenoreceptor): 25.8% | Inhibition (%) AR (AirWay Resistance) (β-adrenoreceptor): 3.5%

C#CCOc1ccc(OCC(O)CNC(c2ccccc2)c2ccccc2)c2c1NC(=O)CC2 (stereo not drawn) [Sample 7]
Inhibition (%) dBP (Diastolic Blood Pressure) (β-adrenoreceptor): 20.5% | Inhibition (%) HR (Heart Rate) (β-adrenoreceptor): 18.4% | Inhibition (%) AR (AirWay Resistance) (β-adrenoreceptor): 8.0%

COc1ccc(CCNCC(O)COc2ccc(OCCO)c3c2CCC(=O)N3)cc1OC (stereo not drawn) [Sample 8]
Inhibition (%) dBP (Diastolic Blood Pressure) (β-adrenoreceptor): 16.8% | Inhibition (%) HR (Heart Rate) (β-adrenoreceptor): 26.3% | Inhibition (%) AR (AirWay Resistance) (β-adrenoreceptor): 8.1%

COc1ccc(CCNCC(O)COc2ccc(OCC(N)=O)c3c2CCC(=O)N3)cc1OC (stereo not drawn) [Sample 12]
Inhibition (%) dBP (Diastolic Blood Pressure) (β-adrenoreceptor): 44.2% | Inhibition (%) HR (Heart Rate) (β-adrenoreceptor): 57.9% | Inhibition (%) AR (AirWay Resistance) (β-adrenoreceptor): 15.2%

COc1ccc(CCNCC(O)COc2ccc(OCC(=O)O)c3c2CCC(=O)N3)cc1OC (stereo not drawn) [Sample 11]
Inhibition (%) dBP (Diastolic Blood Pressure) (β-adrenoreceptor): 47.1% | Inhibition (%) HR (Heart Rate) (β-adrenoreceptor): 50.0% | Inhibition (%) AR (AirWay Resistance) (β-adrenoreceptor): 9.4%

CC(C)NCC(O)COc1ccc(OC(=O)C2CCCCC2)c2c1CCC(=O)N2 (stereo not drawn) [Sample 14]
Inhibition (%) dBP (Diastolic Blood Pressure) (β-adrenoreceptor): 36.3% | Inhibition (%) HR (Heart Rate) (β-adrenoreceptor): 43.2% | Inhibition (%) AR (AirWay Resistance) (β-adrenoreceptor): 27.6%

C#CCOc1ccc(OCC(O)CNCC=C)c2c1NC(=O)CC2 (stereo not drawn) [Sample 5]
Inhibition (%) dBP (Diastolic Blood Pressure) (β-adrenoreceptor): 35.0% | Inhibition (%) HR (Heart Rate) (β-adrenoreceptor): 50.5% | Inhibition (%) AR (AirWay Resistance) (β-adrenoreceptor): 24.3%

C#CCOc1ccc(OCC(O)CNC(C)(C)C)c2c1NC(=O)CC2 (stereo not drawn) [Sample 6]
Inhibition (%) dBP (Diastolic Blood Pressure) (β-adrenoreceptor): 94.5% | Inhibition (%) HR (Heart Rate) (β-adrenoreceptor): 100% | Inhibition (%) AR (AirWay Resistance) (β-adrenoreceptor): 47.6%

C=CCOc1ccc(OCC(O)CNC(C)(C)C)c2c1NC(=O)CC2.Cl (stereo not drawn) [Sample 18, 8-allyloxy-5-(3-t-butylamino-2-hydroxypropoxy)-3,4-dihydrocarbostyril hydrochloride]
Inhibition (%) dBP (Diastolic Blood Pressure) (β-adrenoreceptor): 100% | Inhibition (%) HR (Heart Rate) (β-adrenoreceptor): 34.6% | Inhibition (%) AR (AirWay Resistance) (β-adrenoreceptor): 0%

C=CCOc1ccc(OCC(O)CNCCc2ccc(OC)c(OC)c2)c2c1NC(=O)CC2 (stereo not drawn) [Sample 2]
Inhibition (%) dBP (Diastolic Blood Pressure) (β-adrenoreceptor): 23.5% | Inhibition (%) HR (Heart Rate) (β-adrenoreceptor): 50.2% | Inhibition (%) AR (AirWay Resistance) (β-adrenoreceptor): 24.5%

CC(C)NCC(O)COc1ccc(CC(N)=O)cc1 (stereo not drawn) [Atenolol, reference compound]
Inhibition (%) dBP (Diastolic Blood Pressure) (β-adrenoreceptor): 26.9% | Inhibition (%) HR (Heart Rate) (β-adrenoreceptor): 52.3% | Inhibition (%) AR (AirWay Resistance) (β-adrenoreceptor): 9.8%

COCCOc1ccc(OCC(O)CNCCc2ccc(OC)c(OC)c2)c2c1NC(=O)CC2.O=C(O)/C=C\C(=O)O (stereo not drawn) [8-(2-methoxyethoxy)-5-[3-(3,4-dimethoxyphenethylamino)-2-hydroxypropoxy]-3,4-dihydrocarbostyril maleate]
LD50 ([1]; iv, Rats (Female), read-out: LD50 (50% lethal dose) i.v.): 160 mg/kg | LD50 ([1]; iv, Rats (Male), read-out: LD50 (50% lethal dose) i.v.): 185 mg/kg | LD50 ([1]; po, Rats (Female), read-out: LD50 (50% lethal dose) p.o.): 1450 mg/kg | LD50 ([1]; po, Rats (Male), read-out: LD50 (50% lethal dose) p.o.): 1550 mg/kg

COc1ccc(CCNCC(O)COc2ccc(OCC(C)=O)c3c2CCC(=O)N3)cc1OC (stereo not drawn) [Sample 4]
Inhibition (%) dBP (Diastolic Blood Pressure) (β-adrenoreceptor): 15.1% | Inhibition (%) HR (Heart Rate) (β-adrenoreceptor): 44.6% | Inhibition (%) AR (AirWay Resistance) (β-adrenoreceptor): 2.7%

C#CCOc1ccc(OCC(O)CNCCc2ccc(OC)c(OC)c2)c2c1NC(=O)CC2 (stereo not drawn) [Sample 3]
Inhibition (%) dBP (Diastolic Blood Pressure) (β-adrenoreceptor): 39.5% | Inhibition (%) HR (Heart Rate) (β-adrenoreceptor): 57.6% | Inhibition (%) AR (AirWay Resistance) (β-adrenoreceptor): 14.0%

COc1ccc(CCNCC(O)COc2ccc(OCC(=O)O)c3c2CCC(=O)N3)cc1OC (stereo not drawn) [Sample 19]
Inhibition (%) HR (Heart Rate) (β-adrenoreceptor): 50.0% | Inhibition (%) AR (AirWay Resistance) (β-adrenoreceptor): 9.4%

COCCOc1ccc(OCC(O)CNCCOc2ccc(OC)cc2)c2c1NC(=O)CC2 (stereo not drawn) [Sample 20]
Inhibition (%) dBP (Diastolic Blood Pressure) (β-adrenoreceptor): 18.1% | Inhibition (%) HR (Heart Rate) (β-adrenoreceptor): 23.7% | Inhibition (%) AR (AirWay Resistance) (β-adrenoreceptor): 8.3%

C#CCOc1ccc(OCC(O)CNC(C)(C)Cc2ccccc2)c2c1NC(=O)CC2 (stereo not drawn) [Sample 9]
Inhibition (%) dBP (Diastolic Blood Pressure) (β-adrenoreceptor): 75.7% | Inhibition (%) HR (Heart Rate) (β-adrenoreceptor): 61.7% | Inhibition (%) AR (AirWay Resistance) (β-adrenoreceptor): 41.3%
